In ChEMBL document CHEMBL1122614, “Antiinflammatory activity of N-(2-benzoylphenyl)alanine derivatives” (J Med Chem, 1984):
Values joined by “and” are separate entries in the source; they are usually repeats but may differ in a detail not shown here. Identical values can stand only once. One block for each compound: values may come before it. Active and inactive are the calls of the source. No cut-off for these calls is given here.

Key:
Rattus norvegicus [1] = assay: Oral antiinflammatory activity, measured in rats at the dose of 316 mg/kg; assay type: functional
Rattus norvegicus [2] = assay: Percentage change in volume of pleural fluid in the 5-h Evans Blue-Carrageenan pleural assay for the compound at dose 100 mg/kg; assay type: functional
Rattus norvegicus [3] = assay: Percentage change in volume of pleural fluid in the 5-h Evans Blue-Carrageenan pleural assay for the compound at dose 4 mg/kg; assay type: functional
Rattus norvegicus [4] = assay: Percentage change in volume of pleural fluid in the 5-h Evans Blue-Carrageenan pleural assay for Indomethacin 4.0 mg/kg; assay type: functional
Rattus norvegicus [5] = assay: Percentage change in volume of pleural fluid in the 5-h Evans Blue-Carrageenan pleural assay for the compound at (100 mg/kg); assay type: functional
Cyclooxygenase = target: T1, Cyclooxygenase (Bos taurus, UniProt O62664+O62698)
T1 sequence (O62664 whole entry): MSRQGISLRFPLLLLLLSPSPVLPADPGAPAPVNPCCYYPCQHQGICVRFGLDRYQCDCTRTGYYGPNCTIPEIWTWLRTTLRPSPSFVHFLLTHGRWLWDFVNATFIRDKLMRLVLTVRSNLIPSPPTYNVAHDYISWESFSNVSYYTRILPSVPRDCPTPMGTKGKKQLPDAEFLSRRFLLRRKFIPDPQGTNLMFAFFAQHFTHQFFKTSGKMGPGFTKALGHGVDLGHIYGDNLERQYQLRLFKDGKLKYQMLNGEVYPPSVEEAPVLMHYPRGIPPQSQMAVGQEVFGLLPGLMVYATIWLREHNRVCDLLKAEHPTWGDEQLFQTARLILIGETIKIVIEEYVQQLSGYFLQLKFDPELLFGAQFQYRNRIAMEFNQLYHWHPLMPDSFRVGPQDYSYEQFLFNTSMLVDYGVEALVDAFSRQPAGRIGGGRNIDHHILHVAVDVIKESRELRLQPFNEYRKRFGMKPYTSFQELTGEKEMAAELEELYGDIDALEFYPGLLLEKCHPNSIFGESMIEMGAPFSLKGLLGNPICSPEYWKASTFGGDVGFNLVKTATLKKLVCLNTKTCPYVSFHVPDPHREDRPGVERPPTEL
T1 sequence (O62698 whole entry): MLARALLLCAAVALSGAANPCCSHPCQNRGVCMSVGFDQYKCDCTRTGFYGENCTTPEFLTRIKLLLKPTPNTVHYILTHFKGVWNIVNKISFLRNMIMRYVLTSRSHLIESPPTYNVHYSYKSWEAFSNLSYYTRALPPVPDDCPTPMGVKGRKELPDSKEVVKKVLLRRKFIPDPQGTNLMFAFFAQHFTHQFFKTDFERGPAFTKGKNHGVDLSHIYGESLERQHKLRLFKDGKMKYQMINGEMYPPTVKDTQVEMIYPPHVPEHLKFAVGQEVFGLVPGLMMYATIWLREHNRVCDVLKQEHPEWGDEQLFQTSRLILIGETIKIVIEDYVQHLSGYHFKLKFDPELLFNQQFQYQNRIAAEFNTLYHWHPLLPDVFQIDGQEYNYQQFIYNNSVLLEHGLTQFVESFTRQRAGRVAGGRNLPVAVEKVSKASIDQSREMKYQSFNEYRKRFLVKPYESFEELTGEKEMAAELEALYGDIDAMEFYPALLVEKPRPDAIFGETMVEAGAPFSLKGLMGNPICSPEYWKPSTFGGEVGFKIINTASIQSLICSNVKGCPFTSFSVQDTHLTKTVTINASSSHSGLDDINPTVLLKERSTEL
Description: Inhibition of PG synthetase activity obtained from bovine seminal vesicles

Rattus norvegicus [6] = assay: Relative Oral Anti inflammatory activity in the 5-h Evans Blue-Carrageenan pleural assay using indomethacin as reference compound; IA = inactive at 316 mg/kg; assay type: functional, organism-based; parameters: dose 316 mg/kg
Rattus norvegicus [7] = species: Rattus norvegicus; assay: Percentage change in volume of pleural fluid in the 5-h Evans Blue-Carrageenan pleural assay for the compound; assay type: functional
Rattus norvegicus [8] = assay: Percentage change in volume of pleural fluid in the 5-h Evans Blue-Carrageenan pleural assay for the compound at dose 20 mg/kg; assay type: functional
Rattus norvegicus [9] = assay: Percentage change in volume of pleural fluid in the 5h- Evans Blue-Carrageenan pleural assay for the compound at dose 80 mg/kg; assay type: functional
Rattus norvegicus [10] = assay: Percentage change in volume of pleural fluid in the 5-h Evans Blue-Carrageenan pleural assay for Indomethacin at dose 4.0 mg/kg; assay type: functional
Rattus norvegicus [11] = assay: Percentage change in volume of pleural fluid in the 5-h Evans Blue-Carrageenan pleural assay for the compound at dose 20 m/kg; assay type: functional
Rattus norvegicus [12] = assay: Percentage change in volume of pleural fluid in the 5-h Evans Blue-Carrageenan pleural assay for the compound at dose 80 m/kg; assay type: functional
Rattus norvegicus [13] = assay: Percentage change in volume of pleural fluid in the 5-h Evans Blue-Carrageenan pleural assay for the compound at dose 100 m/kg; assay type: functional

SMILES: CC(Nc1ccccc1C(=O)c1ccc(Cl)cc1Cl)C(=O)O (configuration not stated)
Efficacy ratio (Rattus norvegicus [1]; 316 mg/kg): 1.44 and 1.52
Change (Rattus norvegicus [2]): -34%
Change (Rattus norvegicus [3]): -3%
Change (Rattus norvegicus [4]): -32%

SMILES: O=C(O)CCNc1ccccc1C(=O)c1ccccc1
Efficacy ratio (Rattus norvegicus [1]; 316 mg/kg): 1.35 and 1.46
Change (Rattus norvegicus [5]): -9%
Change (Rattus norvegicus [4]): -41%

SMILES: CC(Oc1ccccc1C(=O)c1ccccc1)C(=O)O (configuration not stated)
Efficacy ratio (Rattus norvegicus [1]; 316 mg/kg): 0.98 and 1.65

SMILES: CC(C)Nc1ccccc1C(=O)c1ccccc1.Cl
Efficacy ratio (Rattus norvegicus [1]; 316 mg/kg): 1.13 and 1.46

SMILES: CC(Nc1ccccc1Oc1ccccc1)C(=O)O (configuration not stated)
Efficacy ratio (Rattus norvegicus [1]; 316 mg/kg): 1.18 and 1.52

IC50 (Cyclooxygenase): 300 µM
SMILES: Cc1ccc2c(-c3ccccc3)nc(=O)n(C(C)C(=O)O)c2c1 (configuration not stated)
Relative potency (Rattus norvegicus [6]): inactive

SMILES: CC(Nc1ccc(C(=O)c2ccccc2)cc1)C(=O)O (configuration not stated)
Efficacy ratio (Rattus norvegicus [1]; 316 mg/kg): 1.37 and 1.91
Change (Rattus norvegicus [5]): -4%
Change (Rattus norvegicus [4]): -31%

SMILES: CN(CC(=O)O)c1ccccc1C(=O)c1ccccc1.Cl
Change (Rattus norvegicus [7]): -13%
Change (Rattus norvegicus [4]): -38%

SMILES: CC(Nc1ccccc1C(=O)c1ccc(Br)cc1)C(=O)O (configuration not stated)
Efficacy ratio (Rattus norvegicus [1]; 316 mg/kg): 1.43 and 1.46
Change (Rattus norvegicus [2]): -29%
Change (Rattus norvegicus [3]): -3%
Change (Rattus norvegicus [4]): -25%

SMILES: COc1ccc(C(=O)c2ccccc2NC(C)C(=O)O)cc1 (configuration not stated)
Efficacy ratio (Rattus norvegicus [1]; 316 mg/kg): 1.8 and 1.94
Change (Rattus norvegicus [2]): -22%
Change (Rattus norvegicus [3]): -9%
Change (Rattus norvegicus [4]): -35%

SMILES: Cc1ccc(C(=O)c2ccccc2)c(NC(C)C(=O)O)c1 (configuration not stated)
Efficacy ratio (Rattus norvegicus [1]; 316 mg/kg): 1.88 and 1.46
Change (Rattus norvegicus [8]): -19%
Change (Rattus norvegicus [4]): -28%

SMILES: CC(Nc1ccc(Cl)cc1C(=O)c1ccc(Br)cc1)C(=O)O (configuration not stated)
Efficacy ratio (Rattus norvegicus [1]; 316 mg/kg): 1.1 and 1.57

SMILES: CC(Nc1ccc(Cl)cc1C(=O)c1ccccc1)C(=O)O (configuration not stated)
Efficacy ratio (Rattus norvegicus [1]; 316 mg/kg): 1.96 and 1.57
Change (Rattus norvegicus [2]; 100 mg/kg): -28% and -18%
Change (Rattus norvegicus [3]): 6%

SMILES: Cc1ccc2c(-c3ccccc3)nc(=O)n(C(C)C)c2c1 [PROQUAZONE]
IC50 (Cyclooxygenase): 0.07 µM

IC50 (Cyclooxygenase): 60 µM
SMILES: CC(Nc1ccccc1C(=O)c1ccc(Cl)cc1)C(=O)O (configuration not stated)
Change (Rattus norvegicus [9]): -33%
Efficacy ratio (Rattus norvegicus [1]; 316 mg/kg): 1.62 and 1.42
Change (Rattus norvegicus [8]): -5%
Change (Rattus norvegicus [4]): -30%

SMILES: CC(Nc1cccc(C(=O)c2ccccc2)c1)C(=O)O.Cl (configuration not stated)
Efficacy ratio (Rattus norvegicus [1]; 316 mg/kg): 1.38 and 1.4
Change (Rattus norvegicus [5]): -15%
Change (Rattus norvegicus [4]): -32%

SMILES: CC(CNc1ccccc1C(=O)c1ccccc1)C(=O)O.Cl (configuration not stated)
Efficacy ratio (Rattus norvegicus [1]; 316 mg/kg): 0.97 and 1.4

SMILES: COc1ccc(NC(C)C(=O)O)c(C(=O)c2ccccc2)c1 (configuration not stated)
Efficacy ratio (Rattus norvegicus [1]; 316 mg/kg): 1.06 and 1.52

IC50 (Cyclooxygenase): > 1000 µM
SMILES: Cc1c(NCC(=O)O)cccc1C(=O)c1ccc(Cl)cc1

SMILES: Cc1ccc(NC(C)C(=O)O)c(C(=O)c2ccccc2)c1 (configuration not stated)
Efficacy ratio (Rattus norvegicus [1]): 1.52
Change (Rattus norvegicus [2]): -15%
Change (Rattus norvegicus [10]): -31%

SMILES: CC(Nc1ccccc1C(=O)c1ccccc1)C(=O)O (configuration not stated)
Change (Rattus norvegicus [11]): 4%
Efficacy ratio (Rattus norvegicus [1]; 316 mg/kg): 1.6 and 1.66
Change (Rattus norvegicus [12]): -32%
Change (Rattus norvegicus [13]): -28%
Change (Rattus norvegicus [10]; 4 mg/kg): -20% and -30%

SMILES: Cc1ccc(C(=O)c2ccccc2NC(C)C(=O)O)cc1 (configuration not stated)
Efficacy ratio (Rattus norvegicus [1]; 316 mg/kg): 1.39 and 1.52
Change (Rattus norvegicus [2]): -21%
Change (Rattus norvegicus [3]): -8%
Change (Rattus norvegicus [4]): -35%

SMILES: O=C(O)CNc1ccccc1C(=O)c1ccccc1
Efficacy ratio (Rattus norvegicus [1]; 316 mg/kg): 0.98 and 1.47
